Data set [1] addresses T1, human A3 receptor subtype (Homo sapiens, UniProt P0DMS8).
T1 construct: expressed in transfected cells; host or cells: HEK293
T1 sequence (P0DMS8 1-318): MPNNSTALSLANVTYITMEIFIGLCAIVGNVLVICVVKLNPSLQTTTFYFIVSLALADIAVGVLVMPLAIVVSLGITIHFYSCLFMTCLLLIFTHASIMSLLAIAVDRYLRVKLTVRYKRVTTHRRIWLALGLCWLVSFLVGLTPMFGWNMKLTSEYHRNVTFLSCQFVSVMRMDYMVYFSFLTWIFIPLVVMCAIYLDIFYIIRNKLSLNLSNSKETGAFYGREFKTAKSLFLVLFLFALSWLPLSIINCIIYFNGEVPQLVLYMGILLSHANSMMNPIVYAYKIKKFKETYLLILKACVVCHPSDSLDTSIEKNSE
Briefly: Adenosine 3 receptor competition radioligand binding ([125I]AB-MECA, HEK293 membranes). Particulars: Table 13; % activity @ 10 μM (footnote 8).

Data set [2] addresses T2, human A1 receptor subtype (Homo sapiens, UniProt P30542).
T2 sequence (P30542 1-326): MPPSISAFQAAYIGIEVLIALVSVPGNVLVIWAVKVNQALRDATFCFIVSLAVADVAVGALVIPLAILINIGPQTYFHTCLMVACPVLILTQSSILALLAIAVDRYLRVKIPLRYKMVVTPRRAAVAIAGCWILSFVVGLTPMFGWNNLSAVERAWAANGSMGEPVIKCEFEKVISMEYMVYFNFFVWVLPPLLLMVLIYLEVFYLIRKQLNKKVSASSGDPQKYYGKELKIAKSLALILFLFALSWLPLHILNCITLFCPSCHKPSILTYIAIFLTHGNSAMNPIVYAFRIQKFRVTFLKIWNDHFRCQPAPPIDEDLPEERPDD

Data set [3] addresses T3, human A1 adenosine receptor (Homo sapiens, UniProt P30542).
T3 sequence (P30542 1-326): T2 sequence (P30542 1-326)
As to conditions: cited from earlier work.

Data set [4] deals with T4, human A2a receptor subtype (Homo sapiens, UniProt P29274).
T4 construct: expressed in transfected cells; host or cells: HEK-293 (Cadus clone #5)
Briefly: Adenosine 2a receptor subtype competition radioligand binding ([3H]CGS-21680, HEK293 membranes). Particulars: Table 13; % activity @ 10 μM (footnote 8).

Each structure is given as a SMILES string.

T4 sequence (P29274 whole entry): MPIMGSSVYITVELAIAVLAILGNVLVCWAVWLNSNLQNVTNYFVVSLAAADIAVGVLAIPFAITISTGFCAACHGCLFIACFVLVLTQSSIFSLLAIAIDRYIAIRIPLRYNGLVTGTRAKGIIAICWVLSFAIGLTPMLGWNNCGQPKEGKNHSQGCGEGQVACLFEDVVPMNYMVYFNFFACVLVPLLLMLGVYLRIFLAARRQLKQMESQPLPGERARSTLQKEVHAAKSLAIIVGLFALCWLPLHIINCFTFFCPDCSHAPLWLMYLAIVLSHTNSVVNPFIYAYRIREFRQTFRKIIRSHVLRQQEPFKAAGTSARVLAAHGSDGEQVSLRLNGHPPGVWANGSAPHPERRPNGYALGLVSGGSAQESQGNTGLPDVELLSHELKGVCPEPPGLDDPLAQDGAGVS

As usually defined, the melting point is the temperature of the solid-liquid transition. `NC(=O)[C@@H]1C[C@H](O)CN1c1nc(-c2ccccc2)nc2[nH]ccc12` [Compound 1606, 4-Hydroxy-1-(2-phenyl-7H-pyrrolo[2,3-d]pyrimidin-4-yl]-pyrrolidine-2-carboxylic Acid Amide]: the melting point lay within 268 to 271 °C.
As for `O[C@H]1CC[C@H](Nc2nc(-c3ccncc3)nc3[nH]ccc23)CC1` [Compound 1321], the “A3 binding, % activity” value in data set [1] stood at 54%^8.
Take `CC(=O)NCCNc1nc(-c2ccccc2)nc2[nH]c(COc3ccccc3)cc12` [Example 17]: the melting point lay in the range of 196 to 197 °C.
The same measure, in the same setting: the value for `NC(=O)c1cc2c(NC3CCC(O)CC3)nc(-c3ccccc3)nc2[nH]1` (stereo not shown) [Compound 1630, 4-(4-Hydroxy-cyclohexylamino)-2-phenyl-7H-pyrrolo[2,3-d]pyrimidine-6-carboxylic Acid Amide] was 210 to 220 °C (dec.).
On the same count and under the same terms, as for `NC(=O)C1CCCN1c1nc(-c2ccccc2)nc2[nH]c(C(=O)O)cc12` (stereo not shown) [Compound 1619, [4-(2-Carbamoylpyrrolidin-1-yl)-2-phenyl-7H-pyrrolo[2,3-d]pyrimidine-6-carboxylic Acid]], the figure is 220 °C (dec.).
Regarding `O[C@H]1CC[C@H](Nc2nc(-c3ccccc3)nc3[nH]c(CN4CCOCC4)cc23)CC1` [Compound 1503], the “Ki-A1 (selectivity versus A2a, A2b, A3)” value in data set [2] (Table 15) is recorded as “* (at least 10 times more selective than other three subtypes)”.
`CC(Cc1ccccc1)Nc1ncnc2c1ncn2[C@@H]1O[C@H](CO)[C@@H](O)[C@H]1O` (single isomer, unassigned; (-)) [PIA, (−)-N6-(2-phenylisopropyl)-adenosine]: in data set [3], the reported affinity result was “approximately 50 nM”.
In turn, `COCc1cc2c(N3CCCC3C(N)=O)nc(-c3ccccc3)nc2[nH]1` (stereo not shown) [Compound 1605] displayed a melting point of 213 to 215 °C.
With `Cc1[nH]c2nc(-c3ccccc3)nc(NCCNC(=O)C3(N)CC3)c2c1C` [Compound 1313], the “A1 binding, % activity” value in data set [2] (Table 13, % activity @ 10 μM (footnote 8)) turned out to be 30%. Further, the “A2a binding, % activity” value in data set [4] is on record as 65%.
`COC(=O)c1cc2c(NC3CCC(O)CC3)nc(-c3ccccc3)nc2[nH]1` (stereo not shown) [Compound 1627, 4-(4-Hydroxy-cyclohexylamino)-2-phenyl-7H-pyrrolo[2,3-d]pyrimidine-6-carboxylic Acid Methyl Ester] yielded a melting point of 225 to 227 °C.
For `CNC(=O)NCCCNc1nc(-c2ccccc2)nc2[nH]c(C)c(C)c12` [Compound 1310], in data set [4], the “A2a binding, % activity” value amounted to 76%.
In turn, `NC(=O)[C@@H]1CCCN1c1nc(-c2ccccc2)nc2[nH]ccc12` [Compound 1602] displayed a melting point of 236 to 238 °C.
